Experimental data: ChEMBL document CHEMBL4602710 (ACS Med Chem Lett, 2020)
≈ marks a conversion by molar mass, not a printed value.

Tests used:
[1] = target: T1, Tyrosine-protein kinase SYK (Homo sapiens, UniProt P43405); experiment: Inhibition of SYK in human whole blood assessed as reduction in anti-FCepsilonR1 mAb-induced basophil activation by measuring decrease in CD63 surface expression incubated for 60 mins followed by anti-FCepsilonR1 mAb stimulation for 20 mins by flow cytometry analysis; type: tissue-based
[2] = target: T1, Tyrosine-protein kinase SYK; experiment: Inhibition of SYK in human Ramos cells assessed as reduction in antihuman IgM F(ab)2-induced phosphorylation of BLNK at Y96 residue preincubated for 1 hr followed by antihuman IgM F(ab)2 stimulation for 5 mins by MSD high bind plate assay; type: cell-based
[3] = Clearance in human liver microsomes; type: ADME, Microsome
[4] = Solubility of compound at pH 2; type: physicochemical; conditions: buffer
[5] = Distribution coefficient, logD of compound; type: physicochemical; conditions: octanol/water
[6] = target: T1, Tyrosine-protein kinase SYK; experiment: Inhibition of SYK (unknown origin) using XL665-labeled peptide as substrate in presence of ATP measured after 30 mins by TR-FRET assay
[7] = Solubility of compound at pH 7.4; type: physicochemical; conditions: buffer

| SMILES | EC50 [1] | EC50 [2] | CLhep predicted [3] | solubility [4] | logD [5] | IC50 [6] | solubility [7] |
| --- | --- | --- | --- | --- | --- | --- | --- |
| c1cn2cc(-c3ccc4cn[nH]c4c3)nc(Nc3ccc(N4C[C@@H]5C[C@H]4CO5)cc3)c2n1 | 1.5 µM | 0.113 µM | 11 mL/min/kg | 79 µM (≈ 33.5 µg/mL) | 1.9 to 2.7 | 0.005 µM | < 1 µM |
| c1cn2cc(-c3ccc4cn[nH]c4c3)nc(Nc3ccc(N4CC5CC(C4)O5)cc3)c2n1 | 0.824 µM | 0.068 µM | 5.33 mL/min/kg | 25 µM (≈ 10.6 µg/mL) | 1.9 to 2.7 | 0.0616 µM | 2 µM (≈ 0.847 µg/mL) |
| Nc1cccc(-c2cn3ccnc3c(Nc3ccc(N4CCN(C5COC5)CC4)cc3)n2)n1 | 0.308 µM | 0.268 µM | 2.17 mL/min/kg | > 100 µM |  | 0.0443 µM | 52 µM (≈ 23 µg/mL) |
| c1cn2cc(-c3cnc4nc[nH]c4n3)nc(Nc3ccc(N4CCN(C5COC5)CC4)cc3)c2n1 |  | 0.192 µM | 2.83 mL/min/kg | > 100 µM |  | 0.0115 µM | 3 µM (≈ 1.41 µg/mL) |
| O=S1(=O)CCN(c2ccc(Nc3nc(-c4ccc5cn[nH]c5c4)cn4ccnc34)cc2)CC1 | 1.19 µM | 0.033 µM | 8.17 mL/min/kg | 26 µM (≈ 11.9 µg/mL) | 1.9 to 2.7 | 0.0195 µM | 3 µM (≈ 1.38 µg/mL) |
| c1cn2cc(-c3cnc4cc[nH]c4n3)nc(Nc3ccc(N4CCN(C5COC5)CC4)cc3)c2n1 | 0.048 µM | 0.011 µM | 3.33 mL/min/kg | > 100 µM |  | 0.0017 µM | 5 µM (≈ 2.34 µg/mL) |
| Nc1cncc(-c2cn3ccnc3c(Nc3ccc(N4CCN(C5COC5)CC4)cc3)n2)c1 | 0.196 µM | 0.162 µM | 4.33 mL/min/kg | 98 µM (≈ 43.4 µg/mL) |  | 0.0286 µM | 87 µM (≈ 38.5 µg/mL) |
| C[C@@H]1CN(c2ccc(Nc3nc(-c4ccc5cn[nH]c5c4)cn4ccnc34)cc2)C[C@H](C)O1 | 0.885 µM | 0.045 µM | 2.5 mL/min/kg | 86 µM (≈ 37.8 µg/mL) | 1.9 to 2.7 | 0.0049 µM | < 1 µM |
| c1cn2cc(-c3ccc4cn[nH]c4c3)nc(Nc3ccc(N4CC5(COC5)C4)cc3)c2n1 | 1.5 µM | 0.063 µM | 11 mL/min/kg | 88 µM (≈ 37.3 µg/mL) | 1.9 to 2.7 | 0.005 µM | < 1 µM |
| c1cn2cc(-c3ccc4cn[nH]c4c3)nc(Nc3ccc(N4CC5(CCOCC5)C4)cc3)c2n1 | 2.18 µM | 0.082 µM | 4 mL/min/kg | 77 µM (≈ 34.8 µg/mL) | 1.9 to 2.7 | 0.009 µM | 3 µM (≈ 1.35 µg/mL) |
| c1cn2cc(-c3ccc4c(c3)NCCO4)nc(Nc3ccc(N4CCN(C5COC5)CC4)cc3)c2n1 | 1.23 µM | 0.046 µM | 15.2 mL/min/kg | > 100 µM |  | 0.0215 µM | 29 µM (≈ 14 µg/mL) |
| c1cn2cc(-c3ccc4nc[nH]c4n3)nc(Nc3ccc(N4CCN(C5COC5)CC4)cc3)c2n1 | 0.089 µM | 0.066 µM | 2.83 mL/min/kg | > 100 µM |  | 0.0319 µM | 90 µM (≈ 42.1 µg/mL) |
| c1cn2cc(-c3ccc4cn[nH]c4n3)nc(Nc3ccc(N4CCN(C5COC5)CC4)cc3)c2n1 | 0.086 µM | 0.023 µM | 4.67 mL/min/kg | > 100 µM |  | 0.0067 µM | 5 µM (≈ 2.34 µg/mL) |
| OC1CCN(c2ccc(Nc3nc(-c4ccc5cn[nH]c5c4)cn4ccnc34)cc2)CC1 | 0.591 µM | 0.033 µM | 4.67 mL/min/kg | 84 µM (≈ 35.7 µg/mL) | 1.9 to 2.7 | 0.0012 µM | 3 µM (≈ 1.28 µg/mL) |
| c1cn2cc(-c3ccc4cn[nH]c4c3)nc(Nc3ccc(N4CCOCC4)cc3)c2n1 [ENTOSPLETINIB] |  |  | 5.17 mL/min/kg | 13 µM (≈ 5.35 µg/mL) | 2.5 |  | 6 µM (≈ 2.47 µg/mL) |
| c1cn2cc(-c3ccc4cn[nH]c4c3)nc(Nc3ccc(N4[C@H]5COC[C@@H]4COC5)cc3)c2n1 | 0.133 µM | 0.033 µM | 9.83 mL/min/kg | < 1 µM | 1.9 to 2.7 | 0.0137 µM | < 1 µM |
| CCN1CCN(c2ccc(Nc3nc(-c4ccc5cn[nH]c5c4)cn4ccnc34)cc2)CC1 | 0.456 µM | 0.036 µM | 3.33 mL/min/kg | > 100 µM | 1.9 to 2.7 | 0.0008 µM | 10 µM (≈ 4.39 µg/mL) |
| c1cn2cc(-c3ccc4cc[nH]c4n3)nc(Nc3ccc(N4CCN(C5COC5)CC4)cc3)c2n1 | 0.128 µM | 0.018 µM | 6.33 mL/min/kg | 99 µM (≈ 46.2 µg/mL) |  | 0.0113 µM | < 1 µM |
| c1cn2cc(-c3cnc4cn[nH]c4c3)nc(Nc3ccc(N4CCN(C5COC5)CC4)cc3)c2n1 | 0.047 µM | 0.013 µM | 3.17 mL/min/kg | > 100 µM |  | 0.0028 µM | 1 µM (≈ 0.468 µg/mL) |
| c1cn2cc(-c3cnc4cc[nH]c4c3)nc(Nc3ccc(N4CCN(C5COC5)CC4)cc3)c2n1 | 0.078 µM | 0.046 µM | 3.83 mL/min/kg | > 100 µM |  | 0.0069 µM | 1 µM (≈ 0.467 µg/mL) |
| OC[C@H]1CN(c2ccc(Nc3nc(-c4ccc5cn[nH]c5c4)cn4ccnc34)cc2)CCO1 | 0.501 µM | 0.029 µM | 4.33 mL/min/kg | 87 µM (≈ 38.4 µg/mL) | 1.9 to 2.7 | 0.0011 µM | 1.2 µM (≈ 0.53 µg/mL) |
| c1cn2cc(-c3ccc4c(n3)NCCO4)nc(Nc3ccc(N4CCN(C5COC5)CC4)cc3)c2n1 | 0.234 µM | 0.107 µM | 4.33 mL/min/kg | 99 µM (≈ 48 µg/mL) |  | 0.0441 µM | 2 µM (≈ 0.969 µg/mL) |
| c1cn2cc(-c3cnc4cn[nH]c4n3)nc(Nc3ccc(N4CCN(C5COC5)CC4)cc3)c2n1 | 0.154 µM | 0.037 µM | 2.33 mL/min/kg | > 100 µM |  | 0.0032 µM | 2 µM (≈ 0.937 µg/mL) |
| c1cn2cc(-c3ccc4cn[nH]c4c3)nc(Nc3ccc(N4C[C@H]5CC[C@@H](C4)O5)cc3)c2n1 | 2.33 µM | 0.162 µM | 9.5 mL/min/kg | 24 µM (≈ 10.5 µg/mL) | 1.9 to 2.7 | 0.0053 µM | < 1 µM |
| COCCN1CCN(c2ccc(Nc3nc(-c4ccc5cn[nH]c5c4)cn4ccnc34)cc2)CC1 | 0.267 µM | 0.023 µM | 8.67 mL/min/kg | > 100 µM | 1.9 to 2.7 | 0.0009 µM | < 1 µM |
| c1cn2cc(-c3ccc4cn[nH]c4c3)nc(Nc3ccc(N4CC5COCC5C4)cc3)c2n1 (stereo not drawn) | 2.21 µM | 0.187 µM | 4.5 mL/min/kg | 24 µM (≈ 10.5 µg/mL) | 1.9 to 2.7 | 0.0096 µM | < 1 µM |
| Nc1cccc(-c2cn3ccnc3c(Nc3ccc(N4CCN(C5COC5)CC4)cc3)n2)c1 | 0.939 µM | 0.22 µM | 3.83 mL/min/kg | > 100 µM |  | 0.0546 µM | 84 µM (≈ 37.1 µg/mL) |
| c1cn2cc(-c3ccc4cc[nH]c4c3)nc(Nc3ccc(N4CCN(C5COC5)CC4)cc3)c2n1 | 0.381 µM | 0.026 µM | 5.17 mL/min/kg | > 100 µM |  | 0.0157 µM | 15 µM (≈ 6.98 µg/mL) |
